Where two headings read alike, the source gives them in different places.
T1: eMBP1 (Homo sapiens, UniProt P13727)
T1 construct: the pro-piece is removed during granule maturation in the eosinophilic leukocyte to convert pro-eMBP1 to eMBP1
T1 sequence (P13727 106-222): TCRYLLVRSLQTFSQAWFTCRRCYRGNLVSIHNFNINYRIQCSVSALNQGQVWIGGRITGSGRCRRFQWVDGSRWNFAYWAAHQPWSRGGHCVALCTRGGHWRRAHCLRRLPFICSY


What was measured:
eMBP1 [1] = target: T1, eMBP1; test: eMBP1 neutralization assay; type: cell-based; settings: for Hill Slope: eMBP1 neutralization curve fit; for IC50: eMBP1 neutralization potency
From the text: Methods: The goal of the investigation is to design and test a peptide product to neutralize and, thus, mitigate toxic effects of eosinophil granule proteins as a treatment for eosinophil-related diseases. Specifically, one aim is to test various polymers of acidic amino acids (i.e., glutamate and aspartate) for their ability to neutralize eMBP1 and compare their potencies to those of the pro-piece of pro-eosinophil major basic protein 1 (pro-eMBP1) as well as various heparins, i.e., low molecular weight heparin, high molecular weight heparin, and unfractionated heparin.
Because pro-piece (PP) can neutralize the toxicity of eMBP1, we reasoned that a careful study of the carbohydrate and acidic peptide structures might elucidate the comparative functions of these domains and lead to an effective eMBP1 inhibitor. We obtained heparins and polymers of the acidic amino acids, glutamic and aspartic, and compared their potencies in the eMBP1 neutralization assay.

[2] = cited from earlier work
eMBP1 [3] = target: T1, eMBP1; test: Inhibition of eMBP1-stimulated histamine release from mast cells; type: cell-based; settings: each inhibitor 50 μg/ml; eMBP1 10^−6 M; rat peritoneal mast cells; FIGS. 3A-3B
Experimental: (§1) Methods: To determine if the compounds shown in Table 2 had the ability to inhibit eMBP1 in a different assay, the compounds were tested for their ability to inhibit eMBP1-stimulated histamine release from mast cells. Peritoneal cells from male rats were harvested, enriched by centrifugation through a cushion of 38% bovine serum albumin (with purities up to about 90%), and stimulated with eMBP1. As expected from previous work, eMBP1 at a concentration of 10^−6 M stimulated histamine release. Specifically, approximately 63% of total histamine was released (as determined by boiling the rat mast cells), and 84% was released in comparison to the amount released by compound 48/80 at 0.1 μg/ml.
In order to test inhibition of eMBP1-stimulated histamine release, each inhibitor was provided as a concentration of 50 μg/ml. Polyglutamic acid (Sigma P4761) in the molecular weight range of 15-50 kDa was utilized for testing.

mast cells = test: Histamine release from mast cells stimulated with eMBP1; type: cell-based, rat; settings: eMBP1 10^−6 M
Experimental: as §1

[4] = IC50 molar concentration, read-out: IC50

Molecule	Hill Slope (eMBP1 [1])	IC50 (eMBP1 [1]) [µg/mL]	IC50 (eMBP1 [1]; [4]) [nM]	also measured
α poly-L-glutamic acid [α poly-L-Glu 2.6 kDa]	2.581	6.965	2680	–
α poly-L-aspartic acid [α poly-L-Asp 23 kDa]	3.061	4.301	187	–
α poly-L-glutamic acid [α poly-L-Glu 7.5 kDa]	3.202	6.158	821	–
N[C@@H](CC(=O)O)C(=O)O [monomer aspartic acid, aspartic acid, reference compound]	–	–	–	eMBP1 inhibitory activity (in words) (eMBP1 [1]; eMBP1 neutralization, Table 2 / FIG. 1): devoid of eMBP1 inhibitory activity; pKa [2]: about 1.92
α poly-D-glutamic acid	2.445	5.197	157	–
α poly-L-aspartic acid [α poly-L-Asp 5.75 kDa]	2.929	4.817	838	–
Polyglutamic acid	–	–	–	inhibition of eMBP1-stimulated histamine release (eMBP1 [3]): roughly comparably and more potently than unfractionated heparin and both glycosylated and unglycosylated pro-piece
α poly-L-aspartic acid [α poly-L-Asp 1.15 kDa]	2.808	14.3	12400	–
eMBP1: eosinophil major basic protein-1, 13.8 kDa single polypeptide of the eosinophil granule core; stimulus in the assays (protein, UniProt P13727 17-222, looked up, Bone marrow proteoglycan, eosinophil major basic protein-1, 13.8 kDa single polypeptide of the eosinophil granule core; stimulus in the assays) Bone marrow proteoglycan: LHLRSETSTFETPLGAKTLPEDEETPEQEMEETPCRELEEEEEWGSGSEDASKKDGAVESISVPDMVDKNLTCPEEEDTVKVVGIPGCQTCRYLLVRSLQTFSQAWFTCRRCYRGNLVSIHNFNINYRIQCSVSALNQGQVWIGGRITGSGRCRRFQWVDGSRWNFAYWAAHQPWSRGGHCVALCTRGGHWRRAHCLRRLPFICSY	–	–	–	histamine released in comparison to the amount released by compound 48/80 (mast cells; compound 48/80 at 0.1 μg/ml): 84%; histamine released, of total histamine (mast cells; total determined by boiling the rat mast cells): approximately 63%

The next lines start with results.

Hill Slope (eMBP1 [1])	IC50 (eMBP1 [1]) [µg/mL]	IC50 (eMBP1 [1]; [4]) [nM]	Molecule	also measured
2.534	4.62	> 462	γ polyglutamic acid [γ poly-Glu <10 kDa]	–
2.177	19.6000	16300	γ polyglutamic acid [γ poly-Glu 1.2 kDa]	–
2.786	5.118	155	α poly-L-glutamic acid [α poly-L-Glu 33 kDa]	–
2.621	4.525	37.7	α poly-L-glutamic acid [α poly-L-Glu 120 kDa]	–
11.5	3.317	< 4.74	γ polyglutamic acid [γ poly-Glu >700 kDa]	–
3.499	5.961	662	α poly-L-glutamic acid [α poly-L-Glu 9 kDa]	–

Source: patent US20250041329A1, “ACIDIC POLYMER COMPOSITIONS AND METHODS OF USE THEREOF” (NexEos Diagnostics, Inc., priority 2023, published 2025)
